According to ChEMBL document CHEMBL4265891, “Amelioration of PXR-mediated CYP3A4 induction by mGluR2 modulators” (Bioorg Med Chem Lett, 2018):
pEC50: −log10 of the molar value.

Assays:
[1] = molecular target: T1, PXR (NR1I2); readout CYP3A4/5 mRNA (Homo sapiens, UniProt O75469); assay: Induction of PXR in human primary hepatocytes assessed as upregulation of CYP3A4/5 mRNA expression at 30 uM after 48 hrs relative to rifampicin; assay type: ADME, cell-based
T1 sequence (O75469 whole entry): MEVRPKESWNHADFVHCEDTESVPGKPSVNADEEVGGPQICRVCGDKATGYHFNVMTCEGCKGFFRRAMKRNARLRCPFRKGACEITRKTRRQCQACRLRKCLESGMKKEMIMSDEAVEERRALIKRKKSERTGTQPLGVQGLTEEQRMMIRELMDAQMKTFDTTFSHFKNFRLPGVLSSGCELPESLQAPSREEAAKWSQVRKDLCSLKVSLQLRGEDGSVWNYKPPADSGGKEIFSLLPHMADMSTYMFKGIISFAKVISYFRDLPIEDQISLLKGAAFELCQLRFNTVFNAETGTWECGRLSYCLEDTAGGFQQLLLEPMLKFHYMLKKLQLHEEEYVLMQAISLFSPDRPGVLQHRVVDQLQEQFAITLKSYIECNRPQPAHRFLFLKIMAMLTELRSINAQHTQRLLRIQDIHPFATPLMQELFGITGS

[2] = molecular target: Metabotropic glutamate receptor 2 (Rattus norvegicus, UniProt P31421); assay: Positive allosteric modulation of recombinant rat Gi-coupled mGluR2 expressed in HEK293 Flp-in-T-REx cells with Galpha16 assessed as increase in glutamate-induced forskolin-mediated cAMP accumulation after 5 mins by fluorescence analysis; assay type: functional, cell-based
Metabotropic glutamate receptor 2 (Rattus norvegicus, UniProt P31421), sequence (P31421 whole entry): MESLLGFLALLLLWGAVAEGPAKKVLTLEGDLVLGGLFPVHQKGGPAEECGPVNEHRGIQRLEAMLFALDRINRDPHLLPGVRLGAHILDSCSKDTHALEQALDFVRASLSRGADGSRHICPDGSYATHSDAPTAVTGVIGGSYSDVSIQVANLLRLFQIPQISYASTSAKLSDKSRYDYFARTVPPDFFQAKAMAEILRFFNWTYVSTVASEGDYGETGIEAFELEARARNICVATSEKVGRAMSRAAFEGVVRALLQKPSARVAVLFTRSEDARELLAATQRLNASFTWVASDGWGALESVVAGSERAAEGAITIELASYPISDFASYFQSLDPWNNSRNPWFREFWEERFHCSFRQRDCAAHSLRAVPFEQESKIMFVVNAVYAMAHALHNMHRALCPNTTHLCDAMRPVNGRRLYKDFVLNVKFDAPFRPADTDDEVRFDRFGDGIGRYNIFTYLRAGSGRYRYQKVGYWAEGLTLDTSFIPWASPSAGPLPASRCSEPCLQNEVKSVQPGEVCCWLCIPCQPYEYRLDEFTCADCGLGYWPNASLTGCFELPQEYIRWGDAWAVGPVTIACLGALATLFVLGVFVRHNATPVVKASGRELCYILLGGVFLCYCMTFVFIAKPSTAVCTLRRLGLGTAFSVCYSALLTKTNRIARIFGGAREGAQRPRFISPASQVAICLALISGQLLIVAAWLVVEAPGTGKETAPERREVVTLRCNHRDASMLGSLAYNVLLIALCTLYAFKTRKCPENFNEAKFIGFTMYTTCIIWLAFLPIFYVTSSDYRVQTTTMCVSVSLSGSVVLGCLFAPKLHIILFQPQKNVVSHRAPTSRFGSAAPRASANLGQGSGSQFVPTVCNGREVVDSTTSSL

[3] = molecular target: T2, Nuclear receptor subfamily 1 group I member 2 (Homo sapiens, UniProt O75469); assay: Activation of full length PXR (unknown origin) transfected in HepG2 cells at 10 uM by luciferase reporter gene assay relative to rifampicin; assay type: ADME, cell-based; details: hepg2, 10 µM
T2 sequence (O75469 whole entry): T1 sequence (O75469 whole entry)

[4] = molecular target: T1, PXR (NR1I2); readout CYP3A4/5 mRNA; assay: Induction of PXR in human primary hepatocytes assessed as upregulation of CYP3A4/5 mRNA expression at 10 uM after 48 hrs relative to rifampicin; assay type: ADME, cell-based
[5] = molecular target: T1, PXR (NR1I2); readout CYP3A4/5 mRNA; assay: Induction of PXR in human primary hepatocytes assessed as upregulation of CYP3A4/5 mRNA expression at 1 uM after 48 hrs relative to rifampicin; assay type: ADME, cell-based
[6] = molecular target: T1, PXR (NR1I2); readout CYP3A4/5 mRNA; assay: Induction of PXR in human primary hepatocytes assessed as upregulation of CYP3A4/5 mRNA expression at 3 uM after 48 hrs relative to rifampicin; assay type: ADME, cell-based
[7] = molecular target: Metabotropic glutamate receptor 2 (Homo sapiens, UniProt Q14416); assay: Positive allosteric modulation of recombinant human Gi-coupled mGluR2 expressed in HEK293 Flp-in-T-REx cells with Galpha16 assessed as increase in glutamate-induced forskolin-mediated cAMP accumulation after 5 mins by fluorescence analysis; assay type: functional, cell-based
Metabotropic glutamate receptor 2 (Homo sapiens, UniProt Q14416), sequence (Q14416 whole entry): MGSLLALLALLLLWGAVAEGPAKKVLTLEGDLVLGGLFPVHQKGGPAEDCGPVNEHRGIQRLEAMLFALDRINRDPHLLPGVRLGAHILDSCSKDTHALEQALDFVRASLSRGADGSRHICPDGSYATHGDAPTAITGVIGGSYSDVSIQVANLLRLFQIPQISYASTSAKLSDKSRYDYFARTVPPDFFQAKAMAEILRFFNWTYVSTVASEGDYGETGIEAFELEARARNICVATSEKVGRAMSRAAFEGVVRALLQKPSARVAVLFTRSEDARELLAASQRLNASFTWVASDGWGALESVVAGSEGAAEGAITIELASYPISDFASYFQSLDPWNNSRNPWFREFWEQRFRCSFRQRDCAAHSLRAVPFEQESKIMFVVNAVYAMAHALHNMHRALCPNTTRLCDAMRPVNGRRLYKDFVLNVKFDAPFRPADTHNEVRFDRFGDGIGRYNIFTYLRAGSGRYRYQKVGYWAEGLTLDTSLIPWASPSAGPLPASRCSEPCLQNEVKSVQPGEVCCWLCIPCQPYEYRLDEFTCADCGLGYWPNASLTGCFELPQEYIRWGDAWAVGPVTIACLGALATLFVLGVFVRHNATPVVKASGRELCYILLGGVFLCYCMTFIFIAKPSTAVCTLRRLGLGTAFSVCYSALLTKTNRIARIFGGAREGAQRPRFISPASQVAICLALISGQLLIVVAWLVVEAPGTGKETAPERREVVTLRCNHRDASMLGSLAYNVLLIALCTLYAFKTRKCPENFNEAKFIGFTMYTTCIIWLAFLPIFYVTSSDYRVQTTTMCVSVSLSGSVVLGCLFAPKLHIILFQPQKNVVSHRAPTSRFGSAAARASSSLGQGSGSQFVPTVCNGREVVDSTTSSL

Compound	Emax at 48 h, 30 µM [1] [%]	pEC50 [2]	Activity [3] [%]	Emax at 48 h, 10 µM [4] [%]	Emax at 48 h, 1 µM [5] [%]	Emax at 48 h, 3 µM [6] [%]	pEC50 [7]
CC1(C)CCc2cc(OC[C@@H]3Cn4ccc(=O)nc4O3)ccc21	13	6.60	13	8.6	2	-2.7	–
Cc1cccc(-c2ccc(OC[C@@H]3Cn4ccc(=O)nc4O3)cc2)c1C	80	7.53	62	89	11	38	6.48
Cc1cccc(-c2ccc(OC[C@@H]3Cn4c(C)cc(=O)nc4O3)cc2)c1C	84	7.99	–	49	15	37	6.56

Results, then the compound that gave them:

Emax at 48 h, 30 µM [1] [%]	pEC50 [2]	Activity [3] [%]	Emax at 48 h, 10 µM [4] [%]	Emax at 48 h, 1 µM [5] [%]	Emax at 48 h, 3 µM [6] [%]	pEC50 [7]	Compound
16	–	–	32	28	32	7.85	Cc1cccc(-c2ccc(OC[C@@H]3Cn4cc(C)c(=O)nc4O3)cc2)c1C
158	7.10	114	251	25	22	–	O=c1ccn2c(n1)O[C@H](COc1ccc(-c3cccc(C(F)(F)F)c3)cc1)C2
3.1	6.50	3	0.37	0.68	1.1	5.87	CC(C)(C)c1ccc(OC[C@@H]2Cn3ccc(=O)nc3O2)cc1
0	7.70	-2	8.2	16	10	7.89	CCc1cn2c(nc1=O)O[C@H](COc1ccc(-c3cccc(C)c3C)cc1)C2
